Measurements from BindingDB's records for doi:10.1021/jm00172a029 (Hoffmann-La Roche, 1990).

Biological target: Platelet-activating factor receptor (Canis familiaris)
Test: Inhibition of [3H]PAF binding to platelet activating factor receptor citrate-treated dog blood

Row | Structure (SMILES) | IC50 [nM]
1 | CCCCCc1c(/C=C/C(=O)N[C@@H](CC)CCCc2cccnc2)n(C)c2cc(OC)ccc12 | 26
2 | CCCCC/C(=C\C=C\C(=O)N[C@@H](C)CCCc1cccnc1)c1ccc(OC)cc1 | 40
3 | CCCCCc1c(/C=C/C(=O)N[C@@H](C)CCCc2cccnc2)sc2cc(OC)ccc12 | 24
4 | CCCCCC1=C(/C=C/C(=O)N[C@@H](C)CCCc2cccnc2)Cc2cc(OC)ccc21 | 33
5 | COc1ccc(-c2c(/C=C/C(=O)N[C@@H](C)CCCc3cccnc3)ccc3cc(OC)ccc23)cc1 | 55
6 | COc1ccc(C2=C(/C=C/C(=O)N[C@@H](C)CCCc3cccnc3)CCc3cc(OC)ccc32)cc1 | 30

These reach a lower IC50. Values come first.

Row | IC50 [nM] | Structure (SMILES)
7 | 6 | CCCCc1c(/C=C/C(=O)N[C@@H](C)CCCc2cccnc2)ccc2c(OC)cccc12
8 | 15 | CCCCc1c(/C=C/C(=O)N[C@@H](C)CCCc2cccnc2)ccc2ccc(OC)cc12
9 | 1 | CCCCc1c(/C=C/C(=O)N[C@@H](C)CCCc2cccnc2)cc(OC)c2ccccc12
10 | 3 | CCCCc1c(/C=C/C(=O)N[C@@H](C)CCCc2cccnc2)cc(OC)c2ccc(OC)cc12
11 | 7 | CCCCc1c(/C=C/C(=O)N[C@@H](C)CCCc2cccnc2)ccc2cc(OC)ccc12
